Data as given in ChEMBL document CHEMBL3045506, “Spore Germination Self-Inhibitors from Plant Pathogenic Fungi” (1997).
≈ marks a conversion by molar mass, not a printed value.

Assays:
Type in all cases: functional
[1] = test system: Puccinia graminis f. sp. tritici; test: Antifungal activity against Puccinia graminis f. sp. tritici assessed as inhibition of uredospore germination after 48 hr by microscope-slide assay
[2] = test system: Puccinia coronata; test: Antifungal activity against Puccinia coronata assessed as inhibition of uredospore germination after 48 hr by microscope-slide assay
[3] = test system: Colletotrichum gloeosporioides; test: Antifungal activity against Colletotrichum gloeosporioides f. sp. jussiaea assessed as conidial germination at 3 ppm after 48 hr by microscopic analysis
[4] = test system: Colletotrichum gloeosporioides; test: Antifungal activity against Colletotrichum gloeosporioides f. sp. jussiaea assessed as conidial germination at 10 ppm after 48 hr by microscopic analysis
[5] = test system: Colletotrichum gloeosporioides; test: Antifungal activity against Colletotrichum gloeosporioides f. sp. jussiaea assessed as conidial germination at 30 ppm after 48 hr by microscopic analysis
[6] = test system: Colletotrichum gloeosporioides; test: Antifungal activity against Colletotrichum gloeosporioides f. sp. jussiaea assessed as conidial germination at 100 ppm after 48 hr by microscopic analysis

**Q.** Which ED50 [1] does the source give for `COC(=O)C(=Cc1ccc(O)c(OC)c1)C(=O)OC` here?
**A.** 0.27 ng/mL (≈ 1.01 nM)

**Q.** What about the ED50 [2] of the same compound?
**A.** 6.8 ng/mL (≈ 25.5 nM)

**Q.** With `C/C=C1/C(=O)Nc2ccccc21` as the compound, how does the Activity [3] read?
**A.** 40%

**Q.** And the Activity [4]?
**A.** 0%

**Q.** And the Activity [5]?
**A.** 0%

**Q.** And the Activity [6]?
**A.** 0%

**Q.** Which Activity [3] does the source give for `C/C=C1\C(=O)Nc2ccccc21` here?
**A.** 68%

**Q.** And the Activity [4]?
**A.** 0%

**Q.** And the Activity [5]?
**A.** 0%

**Q.** And the Activity [6]?
**A.** 0%

**Q.** With `CCCCC[C@H]1CCCCC[C@H]2CC(=O)[C@@H](CCC(=O)O1)O2.NN` [7-EPIGLOEOSPORONE] as the compound, how does the Activity [5] read?
**A.** 82%

**Q.** And the Activity [6]?
**A.** 45%

**Q.** Which results are given for `CCCCC[C@@H]1CCCCC[C@@H]2CC(=O)[C@H](CCC(=O)O1)O2.NN` [13-EPIGLOEOSPORONE]?
**A.** Activity [5]: 81%; Activity [6]: 48%

**Q.** With `CCCCC[C@H]1CCCCC[C@H]2CC(=O)[C@@H](CCC(=O)O1)O2` [(+)-GLOEOSPORONE] as the compound, how does the Activity [5] read?
**A.** 81%

**Q.** And the Activity [6]?
**A.** 44%

**Q.** Which results are given for `CCCCC[C@@H]1CCCCC[C@@H]2CC(=O)[C@H](CCC(=O)O1)O2` [(-)-GLOEOSPORONE]?
**A.** Activity [5]: 82%; Activity [6]: 49%

**Q.** Which ED50 [1] does the source give for `COC(=O)C(=Cc1ccc(OC)c(OC)c1)C(=O)OC` [METHYL 3,4-DIMETHOXYBENZALMALONATE] here?
**A.** 4.16 ng/mL (≈ 14.8 nM)

**Q.** What about the ED50 [2] of the same compound?
**A.** 0.025 ng/mL (≈ 0.0892 nM)

**Q.** With `COC(=O)/C=C\c1ccc(OC)c(OC)c1` [METHYL CIS-3,4-DIMETHOXYCINNAMATE] as the compound, how does the ED50 [1] read?
**A.** 3.68 ng/mL (≈ 16.6 nM)

**Q.** What about the ED50 [2] of the same compound?
**A.** 0.013 ng/mL (≈ 0.0585 nM)

**Q.** `COC(=O)/C=C\c1ccc(O)c(OC)c1` [METHYL CIS-FERULATE] was tested. Which ED50 [1] did it give?
**A.** 0.18 ng/mL (≈ 0.864 nM)

**Q.** And the ED50 [2]?
**A.** 5.57 ng/mL (≈ 26.8 nM)
